The test system of one series is tumor S-180. The series is described as follows: Survival time of tumor-bearing mice (CUR). The following applies: mouse, in vivo. The text has this:
The acceptable criterion for determining the anti-tumor efficacy of the free CUR and PK-CUR-NP are the determination of the life span prolongation.
The number of dead cells in the peritoneal fluid of mice treated with PK-CUR-NP increased life span when compared to free CUR.

In a further series the test system is HL-60 cells. The series is described as follows: Differentiation of human leukemic cells (HL-60), Example 57. It is filed as cell-based. How it is done:
Cell Lines. HL-60 cells were established from a patient with acute myeloid leukemia. The cells were cultured in culture flasks with RPMI plus 10% FCS.
Studies of Induction of Differentiation. Differentiation of HL-60 cells was assessed by their abilities to produced superoxide as measured by reduction of NBT, by NSE staining and by morphology as detected on cytospin preparations stained with Diff-Quick stain Set, and by analysis of membrane-bound differentiation markers with two-color immunofluorescence. Briefly, cells were preincubated at 4° C. for 60 min in 10% human AB serum and then with FITC-conjugated mouse IgGI isotype control. Analysis of fluorescence was performed on a flow cytometer.
Cell Cycle Analysis. The cell cycle was analyzed by flow cytometry after 60 h of incubation of HL-60 cells either with or without HHT (10^−8 M) as described. Briefly, the cells were fixed in cold methanol and incubated for 30 min at 4° C. in the dark with a solution of 50 μg/ml propidium iodide, 1 mg/ml Rnase, and 0.1% NP40. Analysis was performed immediately after staining using the CELLFIT program whereby the S-phase was calculated with Rfit model.
Clonogenic Assay in soft Agar. HL-60 cells were culture in a two-layer soft agar system for 10 days without adding any growth factors as described previously, and colonies were counted using an inverted microscope. […]

Series [1] in a line: Pharmacokinetic study: tissue AUC. It is filed as in vivo, mice. To be noted: 0.5 mg HHT/kg via the tail. How it is done:
Present example described Pharmacokinetic studied of NP. Free HHT and PK-HHT-NP were given to mice via the tail at dose of 0.5 mg HHT/kg. Other methods are as same as method of Example 22.

The test system of another series is L1210 leukemia cells. Put plainly: Anti-leukemia activity against lymphoid leukemia L1210 in mice (survival). The following applies: Example 54; i.p. once a day; dose 1, 10, 20 mg/kg/day, group not stated. It is filed as in vivo. How it is done: Animals: Adult DBA/2J male mice, 6 to 8 weeks old. All animals weighed approximately 25 g when used in experiments. Mice were assigned randomly to treatment and control groups. Each member of which received identical dosed (i.p.) of PK or 0.9% NaCl solution for all injections. Volumes were 0.01 ml/g body weight.
Tumor: L1210 or P388 leukemia cells induced in mice by inoculation with L1210 or P388 leukemia cells (1.0×10^5).
The leukemia cells were passed i.p. weekly. L1210 or P388 cells were cultured at 37° C. in RPMI-1640 medium (GIBCO) without antibiotics and supplemented with 10% fetal calf serum.
After the tumor implantation (1×10^5 leukemia cells), PK was injected intraperitoneally once a day. The treatment was started between the end of 2nd and 6th day after inoculation. Dose of PK was 25 mg/kg/day for PK groups. Control mice were treated with same value of 0-9% NaCl. Anti-leukemia activity was expressed as T/C %. T is median survival days of treated group and C is that of control group. A T/C value was greater that 100% means the treated mice is surviving longer than the control mice. […] The statistical significance of data was determined by student's test. […]
After the tumor implantation (1×10^5 leukemia cells), PK-HHT-SSL was injected intraperitoneally once a day. […] Anti-leukemia activity was expressed as T/C %. […] The statistical significance of data was determined by student's test.

Marks after values point to notes of the source that are not given here.

Turning to `C=C1C[C@@]2(O)O[C@@]3(C[C@H]2C(C)C)[C@@H](C)CC[C@@H]13` [CUR, Curcumol], in the series on tumor S-180, the “Increase in life span T/C (%)” value is 134.78% and the “MST” value is reported as 31 ± 1.9 days.
On to `COC(=O)C[C@](O)(CCCC(C)(C)O)C(=O)O[C@@H]1C(OC)=C[C@]23CCCN2CCc2cc4c(cc2[C@H]13)OCO4` [HHT, Homoharringtonine], for which the “NBT (%)” value with HL-60 cells is 65* %. Also, in series [1], the “Tissue AUC, Blood” value worked out at 3.0 µg·h/g; the “Tissue AUC, Cancer” value turned out to be 12.0 µg·h/g; the “Tissue AUC, Heart” value was 89.2 µg·h/g; the “Tissue AUC, Kidney” value worked out at 243.2 µg·h/g. In series [1], the “Tissue AUC, Liver” value is 168.8 µg·h/g; the “Tissue AUC, Lung” value was found to be 138.9 µg·h/g; the “Tissue AUC, Spleen” value is 192.8 µg·h/g. In addition, in the series with L1210 leukemia cells, the “Survival time” value was 15.6 ± 2.8 days.

Source of the values: patent US20040192641A1, “Special preparation of anticancer drugs made by novel nanotechnology” (priority 2003, published 2004).
